Literature values in patent publication US12233048B2 (Société des Produits Nestlé S.A., priority 2022, dated 2025).

time after ingestion for blood plasma concentration to reach its peak (after ingestion): more than 30 minutes | bioavailability (exogenous melatonin): poor and highly variable
Compound: COc1ccc2[nH]cc(CCNC(C)=O)c2c1 [melatonin, N-acetyl-5-methoxytryptamine]
